Reference: patent US20060160906A1, “Polyamine analogs as therapeutic agents for ocular diseases” (priority 2004, published 2006)
“Also recorded” adds a separate entry of the source.

Key:
[1] = Tolerability of intraperitoneal injections in mice; type: in vivo
[2] = test system: retinal function (ERG a- and b-wave amplitudes); assay: Retinal function assessed by electroretinograms (ERG); type: in vivo, C57BL/6 mice
Protocol: Adult female C57BL/6 mice were given an intravitreous injection of 2, 4, or 20 μg of CGC-11144 in one eye and an injection of vehicle in the fellow eye and after 3 days ERGs were recorded as previously described (Okoye et al., J. Neuosci. 23: 4164-4172 (2003)). ERGs were also performed after daily periocular injections of 0.2 mg of CGC-11144 for 2 weeks. Mice were dark-adapted for a standardized 12-hour period overnight and ERG recordings were performed using the Espion ERG Diagnosys (Diagnosys LLL, Littleton, Mass.). All manipulations were done with dim red light illumination. Beginning the same time each morning, mice were anesthetized by ip injection of 25 μl/g body weight of Avertin (Aldrich, Milwaukee, Wis.) diluted 1:39 in PBS. Corneas were anesthetized with a drop of 0.5% proparacaine hydrochloride (Alcon Labs) and pupils were dilated with 1% tropicamide. Mice were placed on a pad heated to 39° C. and platinum electrodes were placed on each cornea after application of gonioscopic prism solution (Alcon Labs). The reference electrode was placed subcutaneously in the anterior scalp between the eyes, and the ground electrode was inserted into the tail. Electrode impedance was balanced for each eye pair measured. The head of the mouse was placed in a standardized position in a Ganzfeld bowl illuminator that assured equal illumination of the eyes. Simultaneous recordings from both eyes were made for eleven intensity levels of white light ranging from −3.00 to +1.40 log cd-s/m^2. The Espion ERG machine measures the ERG response six times at each flash-intensity and records the average value.

[3] = test system: retinal neovascularization; assay: Oxygen-induced ischemic retinopathy, retinal neovascularization; type: in vivo, neonatal C57BL/6 mice; conditions: 100 μg CGC-11144, 1 mg CGC-11047, 750 μg CGC-11093
Protocol: Ischemic retinopathy can be produced in neonatal C57BL/6 mice as described (Smith, L. E et al., Invest. Opthalmol. Vis. Sci. 35: 101-111 (1994)) and serves as a model for retinopathy of prematurity (ROP). Post-natal day 7 (P7) mice and their mothers were placed in an airtight incubator and exposed to an atmosphere of 75±3% oxygen for 5 days. Incubator temperature was maintained at 23±2° C. and oxygen was continuously monitored with a PROOX model 110 oxygen controller (Reming Bioinstruments Co., Redfield, N.Y.). At post-natal day 12, mice were placed back in room air and were given a periocular injection of 3 μl containing 100 μg of CGC-11144 (n=4), 1 mg of CGC-11047 (n=4), 750 μg of CGC-11093 (n=4) or vehicle. On post-natal day 17 (P17) the treated and control mice were euthanized and the amount of retinal neovascularization was measured.
For measurement of retinal neovascularization, eyes were removed and fixed in 2% paraformaldehyde in phosphate buffered saline (PBS) for one hour and rinsed twice in 25% sucrose in PBS. Specimens were incubated in 25% sucrose in PBS overnight and embedded in OCT compound (Miles Diagnostics, Elkhart, Ind.),). 10 μm frozen sections were post-fixed for 15 minutes in 0.5% glutaraldehyde in PBS and washed in PBS. Sections were also histochemically stained with biotinylated Griffonia simplicifolia lectin B4 (GSA, Vector Laboratories, Burlingame, Calif.), which selectively binds to vascular cells. Slides were incubated in methanol/H2O2 for 10 minutes at 4° C., washed with 0.05 M Tris-buffered saline, pH 7.6 (TBS), and incubated for 30 minutes in 10% normal porcine serum. Slides were incubated 2 hours at room temperature with biotinylated GSA and after rinsing with 0.05M TBS, they were incubated with avidin coupled to peroxidase (Vector Laboratories, Burlingame, Calif.) for 30 minutes at room temperature. After being washed for 10 minutes with 0.05M TBS, slides were incubated with diaminobenzidine (Research Genetics, Huntsville, Ala.) to give a brown reaction product.
To perform quantitative assessments, 10 μm frozen serial sections were cut from the iris root on one side of the eye to the iris root on the opposite side of the eye and every tenth section was stained with GSA. Retinas were examined with an Axioskop microscope and images were digitized using a 3 CCD color video camera and a frame grabber. Image-Pro Plus software was used to delineate GSA-stained vascular cells above the internal limiting membrane and the total area of staining was measured.
To investigate the effect of these agents on regression of retinal neovascularization, ischemic retinopathy was induced and left untreated until P17, when the baseline amount of retinal neovascularization was measured in one group of mice. From post-natal days 17 to 20 (P17 to P20) the remainder of the mice were given daily periocular injections of 100 μg of CGC-11144 (n=4), 1 mg of CGC-11047 (n=4), 750 μg of CGC-11093 (n=4) or vehicle. On P20 the mice were euthanized and the amount of retinal neovascularization in the treated and control mice was measured as described above.

CNV lesions = assay: TUNEL staining for apoptosis within CNV lesions; type: in vivo, C57BL/6 mice; conditions: periocular 200 μg on days 7 and 8 after laser
Protocol: On days 7 and 8 after laser-induced rupture of Bruch's membrane, adult female C57BL/6 mice received a periocular injection of 0.2 mg of CGC-11144 or vehicle and then they were euthanized. Eyes were embedded in OCT and 10 μm serial sections were cut through CNV lesions and fixed with 1% paraformaldehyde for 10 minutes at room temperature. TUNEL staining was done using an ApopTag Fluorescein Red Kit (Intergen, Purchase, N.Y.) following the manufacturer's instructions. Adjacent sections were stained for GSA to visualize vascular cells on some sections; TUNEL staining was done to identify cell undergoing apoptosis on adjacent sections.

[4] = intravitreous 2 μg, after 3 days

Compound: CCNCCCCNCCCCNCCCCNCCCCNC/C=C/CNCCCCNCCCCNCCCCNCCCCNCC.Cl.Cl.Cl.Cl.Cl.Cl.Cl.Cl.Cl.Cl [CGC-11144]
- tolerability ([1]; ip 10 mg/kg twice a week): well tolerated
- tolerability ([1]; ip 20 mg/kg twice a week, 2-week treatment period): not well tolerated and several mice died
- ERG a- and b-wave amplitudes vs vehicle ([2]; daily periocular 200 μg for 14 days): normal ERG a- and b-wave amplitudes; also recorded: no difference in mean a-wave or b-wave amplitudes
- ERG a-wave amplitudes [2, 4]: only mildly decreased at highest flash intensities
- ERG b-wave amplitudes [2, 4]: profoundly reduced at all flash intensities
- ERG amplitudes ([2]; intravitreous 10 μg, after 3 days): striking decrease in ERG amplitudes
- ERG a- and b-wave amplitudes ([2]; intravitreous 20 μg, after 3 days): dramatically reduced
- ERG b-wave amplitudes compared to PBS ([2]; intravitreous 2, 4, or 20 μg, after 3 days, p<0.05): significant decrease in b-wave amplitudes
- ERG a-wave amplitudes compared to PBS ([2]; intravitreous 4 or 20 μg, after 3 days, p<0.05): significant decrease in a-wave amplitudes
- amount of retinal neovascularization at P20 vs vehicle (regression) ([3]; daily periocular injections P17 to P20): significantly less neovascularization
- amount of retinal neovascularization at P17 vs vehicle (suppression) ([3]; periocular injection at P12): significantly less
- TUNEL-stained (apoptotic) cells within CNV lesions (CNV lesions): many TUNEL-stained cells within CNV lesions; also recorded: several red TUNEL-stained nuclei located within the CNV lesion
